Test results reported in patent US20050119314A1, “Pharmaceutical composition comprising an ACAT inhibitor and an insulin resistance reducing agent” (SANKYO COMPANY, LIMITED, priority 2002, published 2005).

Tested on: apolipoprotein E-deficient mice
Assay: Determination of areas of pathological changes appearing in the aorta (atherosclerotic lesions and macrophage area in the aortic valve)
Assay type: in vivo
Conditions: male apolipoprotein E-deficient mice, compounds mixed with diet (Compound A 0.03 w/w %, Compound B 0.0001 w/w %) for 12 weeks, average ± standard error; for Rate of area occupied with macrophage: anti-MOMA-2 positive area relative to lesion area
Description: Determination of Areas of Pathological Changes Appearing in the Aorta
Male apolipoprotein E-deficient mice of 12 weeks of age were divided into 4 groups (10 mice per a group) as follows: control group, group treated with 5-[4-(6-methoxy-1-methylbenzimidazol-2-yl-methoxy)benzyl]thiazolidine-2,4-dione hydrochloride (mixed with diet at a concentration of 0.0001 w/w %, hereinafter referred to as Compound B), group treated with N-(1-octyl-5-carboxymethyl-4,6-dimethylindolin-7-yl)-2,2-dimethylpropanamide hemisulfate (mixed with diet at a concentration of 0.03 w/w %, hereinafter referred to as Compound A), and co-administration group of Compound B (mixed with diet at a concentration of 0.0001 w/w %) and Compound A (mixed with diet at a concentration of 0.03 w/w %). All mice were treated with compounds mixed with diet except the control group for 12 successive weeks. The mice were autopsied in the 12th week and the area of atherosclerotic lesions in the aortic valve and the ratio of the area occupied by macrophages in the same area (positively stained area with anti-MOMA-2) were determined.
(1) Areas of Atherosclerotic Lesions in the Aorta
The aortic valve was stained with elastic-Masson and the area of atherosclerotic lesions in the aortic valve determined. Less-stained areas indicate greater inhibitory effects of the agents on the atherosclerotic lesions as well as suppressive action of the agents against progressive development of atherosclerotic lesions in the aorta.
(2) Rate of Area Occupied by Macrophages
Macrophages in the aortic valve were detected by staining with anti-MOMA-2. Areas occupied by macrophages in the aortic valve were determined and the ratio of the area occupied by macrophages (positively stained areas with anti-MOMA-2) to the area of atherosclerotic lesions in the aortic valve was calculated.
Macrophages are a factor to make plaques unstable. Thus decreases in macrophage accumulation increase plaque stability and are related to amelioration of the atherosclerotic lesions.
The actual measurement value in Table 1 indicates average ± standard error.

N-(1-octyl-5-carboxymethyl-4,6-dimethylindolin-7-yl)-2,2-dimethylpropanamide hemisulfate [Compound A]
Rate of area occupied with macrophage: 13.7 ± 2.2%

COc1ccc2nc(COc3ccc(CC4SC(=O)NC4=O)cc3)n(C)c2c1.Cl (stereo not drawn) [Compound B, 5-[4-(6-methoxy-1-methylbenzimidazol-2-yl-methoxy)benzyl]thiazolidine-2,4-dione hydrochloride]
Rate of area occupied with macrophage: 23.3 ± 4.1% | Area of atherosclerotic lesions (elastic-Masson stain): 80616 ± 11611 μm^2
